Data taken from the supplement of paper PMC11061612.

How the values were obtained:
Capivasertib = compound: C1CN(CCC1(C(=O)N[C@@H](CCO)C2=CC=C(C=C2)Cl)N)C3=NC=NC4=C3C=CN4 [Capivasertib]; details: max 10 µM
How it was run: (§1)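 Plates with 1536 wells received cancer cell lines in 7.5 μl of DMEM/F12 or RPMI containing 10% FBS. After 24 hours at 37°C and 5% CO2, cells were dosed for 72 hours with final DMSO typically 0.2%, and viability was read by CellTiter-Glo 2.0 luminescence scaled between blank-well and DMSO-well means. The single-agent IC50 was taken from a logistic fit of the dose responses made with a non-linear mixed effects model, that logistic curve having two parameters.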

AZD1775 = compound: C=CCn1c(=O)c2cnc(Nc3ccc(N4CCN(C)CC4)cc3)nc2n1-c1cccc(C(C)(C)O)n1 [AZD1775]; details: max 3 µM
How it was run: as §1

Trametinib = compound: CC(=O)Nc1cccc(-n2c(=O)n(C3CC3)c(=O)c3c(Nc4ccc(I)cc4F)n(C)c(=O)c(C)c32)c1 [Trametinib]; details: max 1 µM
How it was run: as §1

Palbociclib = compound: CC(=O)c1c(C)c2cnc(Nc3ccc(N4CCNCC4)cn3)nc2n(C2CCCC2)c1=O [Palbociclib]; details: max 10 µM
How it was run: as §1

AZD1390 = compound: CC(C)n1c(=O)n(C)c2cnc3cc(F)c(-c4ccc(OCCCN5CCCCC5)nc4)cc3c21 [AZD1390]; details: max 0.3 µM
How it was run: as §1

Venetoclax = compound: CC1(C)CCC(CN2CCN(c3ccc(C(=O)NS(=O)(=O)c4ccc(NCC5CCOCC5)c([N+](=O)[O-])c4)c(Oc4cnc5[nH]ccc5c4)c3)CC2)=C(c2ccc(Cl)cc2)C1 [Venetoclax]; details: max 1 µM
How it was run: as §1

Dasatinib = compound: CC1=C(C(=CC=C1)Cl)NC(=O)C2=CN=C(S2)NC3=CC(=NC(=N3)C)N4CCN(CC4)CCO [Dasatinib]; details: max 2 µM
How it was run: as §1

SG3199 = compound: CC1=CN2[C@@H](C1)C=NC3=CC(=C(C=C3C2=O)OC)OCCCCCOC4=C(C=C5C(=C4)N=C[C@@H]6CC(=CN6C5=O)C)OC [SG3199]; details: max 0.001 µM
How it was run: as §1

AZD2811 = compound: CCN(CCO)CCCOc1ccc2c(Nc3cc(CC(=O)Nc4cccc(F)c4)[nH]n3)ncnc2c1 [AZD2811]; details: max 1 µM
How it was run: as §1

SN-38 = compound: CCc1c2c(nc3ccc(O)cc13)-c1cc3c(c(=O)n1C2)COC(=O)[C@]3(O)CC [SN-38]; details: max 0.3 µM
How it was run: as §1

AZD0156 = compound: CN(C)CCCOc1ccc(-c2ccc3ncc4c(c3c2)n(C2CCOCC2)c(=O)n4C)cn1 [AZD0156]; details: max 3 µM
How it was run: as §1

AZD4320 = compound: CN(CC[C@H](CSC1=CC=CC=C1)NC2=C(C=C(C=C2)S(=O)(=O)NC(=O)C3=CC=C(C=C3)N4CCC(CC4)[C@H](C5=CC=CC=C5C6=CC=C(C=C6)Cl)O)S(=O)(=O)C(F)(F)F)CCO [AZD4320]; details: max 1 µM
How it was run: as §1

Alisertib = compound: COc1cc(Nc2ncc3c(n2)-c2ccc(Cl)cc2C(c2c(F)cccc2OC)=NC3)ccc1C(=O)O [Alisertib]; details: max 10 µM
How it was run: as §1

Gefitinib = compound: COc1cc2ncnc(Nc3ccc(F)c(Cl)c3)c2cc1OCCCN1CCOCC1 [Gefitinib]; details: max 10 µM
How it was run: as §1

Prexasertib = compound: COc1cccc(OCCCN)c1-c1cc(Nc2cnc(C#N)cn2)n[nH]1 [Prexasertib]; details: max 1 µM
How it was run: as §1

Doxorubicin = compound: COc1cccc2c1C(=O)c1c(O)c3c(c(O)c1C2=O)C[C@@](O)(C(=O)CO)C[C@@H]3O[C@H]1C[C@H](N)[C@H](O)[C@H](C)O1 [Doxorubicin]; details: max 1 µM
How it was run: as §1

AZD5153 = compound: COc1nnc2ccc(N3CCC(c4ccc(OCCN5CCN(C)C(=O)[C@H]5C)cc4)CC3)nn12 [AZD5153]; details: max 1 µM
How it was run: as §1

Lapatinib = compound: CS(=O)(=O)CCNCc1ccc(-c2ccc3ncnc(Nc4ccc(OCc5cccc(F)c5)c(Cl)c4)c3c2)o1 [Lapatinib]; details: max 10 µM
How it was run: as §1

AZD8186 = compound: C[C@@H](Nc1cc(F)cc(F)c1)c1cc(C(=O)N(C)C)cc2c(=O)cc(N3CCOCC3)oc12 [AZD8186]; details: max 3 µM
How it was run: as §1

Crizotinib = compound: C[C@@H](Oc1cc(-c2cnn(C3CCNCC3)c2)cnc1N)c1c(Cl)ccc(F)c1Cl [Crizotinib]; details: max 10 µM
How it was run: as §1

Savolitinib = compound: C[C@@H](c1ccc2nccn2c1)n1nnc2ncc(-c3cnn(C)c3)nc21 [Savolitinib]; details: max 1 µM
How it was run: as §1

AZD6738 = compound: C[C@@H]1COCCN1C2=NC(=NC(=C2)C3(CC3)[S@](=N)(=O)C)C4=C5C=CNC5=NC=C4 [AZD6738]; details: max 10 µM
How it was run: as §1

AZD5991 = compound: Cc1c2c(nn1C)CSCc1cc(n(C)n1)CSc1cc(c3ccccc3c1)OCCCc1c(C(=O)O)n(C)c3c-2c(Cl)ccc13 [AZD5991]; details: max 1 µM
How it was run: as §1

AZD7648 = compound: Cc1cc2ncnn2cc1Nc1ncc2c(n1)n(C1CCOCC1)c(=O)n2C [AZD7648]; details: max 10 µM
How it was run: as §1

Taselisib = compound: Cc1nc(-c2cn3c(n2)-c2ccc(-c4cnn(C(C)(C)C(N)=O)c4)cc2OCC3)n(C(C)C)n1 [Taselisib]; details: max 10 µM
How it was run: as §1

Selumetinib = compound: Cn1cnc2c(F)c(Nc3ccc(Br)cc3Cl)c(C(=O)NOCCO)cc21 [Selumetinib]; details: max 10 µM
How it was run: as §1

Olaparib = compound: O=C(c1cc(Cc2n[nH]c(=O)c3ccccc23)ccc1F)N1CCN(C(=O)C2CC2)CC1 [Olaparib]; details: max 10 µM
How it was run: as §1

Cell Line | IC50, cell viability 72 h (Capivasertib) | IC50, cell viability 72 h (AZD1775) | IC50, cell viability 72 h (Trametinib) | IC50, cell viability 72 h (Palbociclib) | IC50, cell viability 72 h (AZD1390) | IC50, cell viability 72 h (Venetoclax) | IC50, cell viability 72 h (Dasatinib) | IC50, cell viability 72 h (SG3199) | IC50, cell viability 72 h (AZD2811) | IC50, cell viability 72 h (SN-38) | IC50, cell viability 72 h (AZD0156) | IC50, cell viability 72 h (AZD4320) | IC50, cell viability 72 h (Alisertib) | IC50, cell viability 72 h (Gefitinib) | IC50, cell viability 72 h (Prexasertib) | IC50, cell viability 72 h (Doxorubicin) | IC50, cell viability 72 h (AZD5153) | IC50, cell viability 72 h (Lapatinib) | IC50, cell viability 72 h (AZD8186) | IC50, cell viability 72 h (Crizotinib) | IC50, cell viability 72 h (Savolitinib) | IC50, cell viability 72 h (AZD6738) | IC50, cell viability 72 h (AZD5991) | IC50, cell viability 72 h (AZD7648) | IC50, cell viability 72 h (Taselisib) | IC50, cell viability 72 h (Selumetinib) | IC50, cell viability 72 h (Olaparib)
CFPAC-1 (Pancreatic Carcinoma) | > 10000 nM | 1440 nM | > 1000 nM | > 10000 nM | > 300 nM | > 1000 nM | > 2000 nM | > 1 nM | > 1000 nM | 26.1 nM | > 3000 nM | > 1000 nM | > 10000 nM | > 10000 nM | 108 nM | > 1000 nM | > 1000 nM | > 10000 nM | > 3000 nM | > 10000 nM | > 1000 nM | > 10000 nM | > 1000 nM | > 10000 nM | 5770 nM | > 10000 nM | > 10000 nM
J82 (Bladder Carcinoma) | > 10000 nM | > 3000 nM | > 1000 nM | > 10000 nM | > 300 nM | > 1000 nM | > 2000 nM | > 1 nM | > 1000 nM | 80.5 nM | > 3000 nM | > 1000 nM | > 10000 nM | > 10000 nM | > 1000 nM | > 1000 nM | > 1000 nM | > 10000 nM | > 3000 nM | > 10000 nM | > 1000 nM | > 10000 nM | > 1000 nM | > 10000 nM | > 10000 nM | > 10000 nM | > 10000 nM
CAL-78 (Chondrosarcoma) | > 10000 nM | 898 nM | > 1000 nM | > 10000 nM | > 300 nM | > 1000 nM | > 2000 nM | > 1 nM | > 1000 nM | 54.1 nM | > 3000 nM | > 1000 nM | 1780 nM | > 10000 nM | 226 nM | > 1000 nM | > 1000 nM | > 10000 nM | > 3000 nM | > 10000 nM | > 1000 nM | > 10000 nM | 261 nM | > 10000 nM | > 10000 nM | > 10000 nM | > 10000 nM
697 (B-Lymphoblastic Leukemia) | 3240 nM | 149 nM | 662 nM | 263 nM | > 300 nM | 14.3 nM | 677 nM | > 1 nM | 14.6 nM | 3.34 nM | 2070 nM | 6.75 nM | 33.3 nM | > 10000 nM | 4.5 nM | 17.3 nM | 14.2 nM | 6950 nM | > 3000 nM | 1100 nM | > 1000 nM | 336 nM | 48.9 nM | 9410 nM | 3940 nM | > 10000 nM | 1410 nM
EM-2 (Chronic Myelogenous Leukemia) | > 10000 nM | 295 nM | 350 nM | > 10000 nM | > 300 nM | > 1000 nM | 2.28 nM | > 1 nM | 21.9 nM | 5.12 nM | > 3000 nM | 34.2 nM | 1060 nM | > 10000 nM | 5.51 nM | 104 nM | 61.6 nM | > 10000 nM | > 3000 nM | 859 nM | > 1000 nM | 1630 nM | > 1000 nM | > 10000 nM | > 10000 nM | 5550 nM | > 10000 nM
NCI-H1793 (Lung Adenocarcinoma) | > 10000 nM | > 3000 nM | > 1000 nM | > 10000 nM | > 300 nM | > 1000 nM | 1100 nM | > 1 nM | > 1000 nM | > 300 nM | > 3000 nM | > 1000 nM | > 10000 nM | > 10000 nM | 938 nM | > 1000 nM | > 1000 nM | > 10000 nM | > 3000 nM | > 10000 nM | > 1000 nM | > 10000 nM | > 1000 nM | > 10000 nM | > 10000 nM | > 10000 nM | > 10000 nM
NCI-H2369 (Mesothelioma) | > 10000 nM | > 3000 nM | > 1000 nM | > 10000 nM | > 300 nM | > 1000 nM | > 2000 nM | > 1 nM | > 1000 nM | > 300 nM | > 3000 nM | > 1000 nM | > 10000 nM | > 10000 nM | > 1000 nM | > 1000 nM | > 1000 nM | > 10000 nM | > 3000 nM | > 10000 nM | > 1000 nM | > 10000 nM | > 1000 nM | > 10000 nM | > 10000 nM | > 10000 nM | > 10000 nM
DMS-273 (Small Cell Lung Carcinoma) | 916 nM | 1170 nM | > 1000 nM | > 10000 nM | > 300 nM | > 1000 nM | > 2000 nM | > 1 nM | 114 nM | 18.9 nM | > 3000 nM | > 1000 nM | 1060 nM | > 10000 nM | 32.4 nM | 458 nM | 117 nM | 7430 nM | 1480 nM | 3930 nM | > 1000 nM | 3450 nM | 201 nM | > 10000 nM | 5580 nM | > 10000 nM | > 10000 nM
